The MIC is the lowest concentration found to suppress growth. What is called pKd is −log10 of the Kd, conventionally taken in molar units. The low end stands for a large Kd, the high end for a small Kd.

pKd: −log10 of the molar value. In brackets after ≈: the same amount, converted by molar mass.

The results in this text go back to ChEMBL document CHEMBL3217468 (Medchemcomm, 2012).

Assay [1] deals with Staphylococcus epidermidis. In words: Antibacterial activity against Staphylococcus epidermidis harboring SPase S29P mutant gene by modified CLSI microbroth dilution method. Type of assay: functional.
The test system of assay [2] is Staphylococcus epidermidis. As to the kind of experiment: Antibacterial activity against Staphylococcus epidermidis assessed as growth inhibition. Type of assay: functional.
Assay [3] relates to Corynebacterium glutamicum. As to the kind of experiment: Antibacterial activity against Corynebacterium glutamicum harboring SPase with methionine residue at position 29 by modified CLSI microbroth dilution method. Format: functional. In general terms: Broth dilution looks for growth in wells or tubes with falling amounts of substance.
In assay [4] the test system is Staphylococcus epidermidis. In words: Antibacterial activity against Staphylococcus epidermidis harboring mutant SPase by CLSI broth microdilution method. Type of assay: functional.
Assay [5] has as its system Staphylococcus aureus. In words: Antibacterial activity against Staphylococcus aureus harboring SPase P29S mutant gene by modified CLSI microbroth dilution method. Format: functional.
Assay [6] relates to Escherichia coli. As to the kind of experiment: Antibacterial activity against Escherichia coli harboring wild type SPase by modified CLSI microbroth dilution method. Type of assay: functional.
In assay [7] the test system is Staphylococcus aureus. As to the kind of experiment: Antibacterial activity against Staphylococcus aureus harboring mutant SPase by CLSI broth microdilution method. Format: functional.
The subject of assay [8] is Escherichia coli. In words: Antibacterial activity against Escherichia coli harboring SPase P84S mutant gene by modified CLSI microbroth dilution method. Type of assay: functional.
Assay [9] relates to Streptococcus pneumoniae. As to the kind of experiment: Antibacterial activity against Streptococcus pneumoniae harboring SPase with aspargine residue at position 29 by modified CLSI microbroth dilution method. Format: functional.
Assay [10] deals with Staphylococcus epidermidis. In words: Antibacterial activity against Staphylococcus epidermidis harboring wild type SPase by modified CLSI microbroth dilution method. Type of assay: functional.
Assay [11] relates to Streptococcus agalactiae. In words: Antibacterial activity against wild type Streptococcus agalactiae by CLSI broth microdilution method. Type of assay: functional.
For assay [12], the system named is Escherichia coli. As to the kind of experiment: Antibacterial activity against wild type Escherichia coli by CLSI broth microdilution method. Type of assay: functional.
For assay [13], the system named is Streptococcus pneumoniae. As to the kind of experiment: Antibacterial activity against wild type Streptococcus pneumoniae by CLSI broth microdilution method. Format: functional.
For assay [14], the system named is Rhodococcus opacus. In words: Antibacterial activity against Rhodococcus opacus harboring SPase with valine residue at position 29 by modified CLSI microbroth dilution method. Format: functional.
Assay [15] deals with Staphylococcus haemolyticus. In words: Antibacterial activity against Staphylococcus haemolyticus harboring SPase with serine residue at position 29 by modified CLSI microbroth dilution method. Format: functional.
For assay [16], the system named is Helicobacter pylori. As to the kind of experiment: Antibacterial activity against Helicobacter pylori harboring SPase with alanine residue at position 29 by modified CLSI microbroth dilution method. Type of assay: functional.
In assay [17] the test system is Staphylococcus aureus. In words: Antibacterial activity against wild type Staphylococcus aureus by CLSI broth microdilution method. Type of assay: functional.
In assay [18] the test system is Prescottella equi. As to the kind of experiment: Antibacterial activity against Rhodococcus equi harboring SPase with valine or isoleucine residue at position 29 by modified CLSI microbroth dilution method. Format: functional. The following applies: Rhodococcus (subgen. Prescottella) equi.
The nature of assay [19]: Binding affinity to Escherichia coli delta 2 to 75 truncated type 1 signal peptidase by fluorescence analysis.
The test system of assay [20] is Staphylococcus epidermidis. As to the kind of experiment: Antibacterial activity against wild type Staphylococcus epidermidis by CLSI broth microdilution method. Format: functional.
Assay [21] relates to Escherichia coli. As to the kind of experiment: Antibacterial activity against Escherichia coli harboring mutant SPase by CLSI broth microdilution method. Type of assay: functional.
Assay [22] deals with Staphylococcus epidermidis. In words: Antibacterial activity against Staphylococcus epidermidis harboring SPase with serine residue at position 29 by modified CLSI microbroth dilution method. Format: functional.
Assay [23] has as its system Streptococcus pyogenes. As to the kind of experiment: Antibacterial activity against Streptococcus pyogenes harboring SPase with alanine residue at position 29 by modified CLSI microbroth dilution method. Type of assay: functional.
The subject of assay [24] is Pseudomonas aeruginosa. In words: Antibacterial activity against Pseudomonas aeruginosa harboring mutant SPase by CLSI broth microdilution method. Type of assay: functional.
In assay [25] the test system is Chlamydia trachomatis. In words: Antibacterial activity against Chlamydia trachomatis harboring SPase with leucine residue at position 29 by modified CLSI microbroth dilution method. Format: functional.
Assay [26] deals with Pseudomonas aeruginosa. In words: Antibacterial activity against Pseudomonas aeruginosa harboring wild type SPase by modified CLSI microbroth dilution method. Type of assay: functional.
Assay [27] deals with Pseudomonas aeruginosa. As to the kind of experiment: Antibacterial activity against Pseudomonas aeruginosa harboring SPase P84S mutant gene by modified CLSI microbroth dilution method. Format: functional.
For assay [28], the system named is Staphylococcus aureus. In words: Antibacterial activity against Staphylococcus aureus harboring wild type SPase by modified CLSI microbroth dilution method. Type of assay: functional.
In assay [29] the test system is Lactococcus lactis. As to the kind of experiment: Antibacterial activity against Lactococcus lactis harboring SPase with leucine residue at position 29 by modified CLSI microbroth dilution method. Type of assay: functional.
Assay [30] deals with Pseudomonas aeruginosa. In words: Antibacterial activity against wild type Pseudomonas aeruginosa by CLSI broth microdilution method. Format: functional.

Regarding `CCCCCCCCCCCCCCCC(=O)N(C)[C@H](CO)C(=O)N[C@H](C)C(=O)NCC(=O)N(C)[C@@H]1C(=O)N[C@@H](C)C(=O)N[C@H](C(=O)O)Cc2ccc(O)c(c2)-c2cc1ccc2O` [ARYLOMYCIN C16], the minimal inhibitory concentration (MIC) in assay [1] was 8 µg/mL (≈ 9.08 µM); in [2] it was 0.5 µg/mL (≈ 0.567 µM); in [3], 2 µg/mL (≈ 2.27 µM); in assay [4], 8 µg/mL (≈ 9.08 µM); in assay [5], 2 µg/mL (≈ 2.27 µM); in assay [6], over 128 µg/mL. Also, the MIC in assay [7] was 4 µg/mL (≈ 4.54 µM); in assay [8], 4 µg/mL (≈ 4.54 µM); in assay [9], 16 µg/mL (≈ 18.2 µM); in assay [10], 0.25 µg/mL (≈ 0.284 µM); in assay [11], over 64 µg/mL; in [12], over 64 µg/mL. The minimal inhibitory concentration (MIC) is 8 µg/mL (≈ 9.08 µM) in [13]; 2 µg/mL (≈ 2.27 µM) in [14]; 2 µg/mL (≈ 2.27 µM) in assay [15]; 4 µg/mL (≈ 4.54 µM) in assay [16]; over 64 µg/mL in assay [17]; 16 µg/mL (≈ 18.2 µM) in assay [18]. Moreover, the MIC in assay [20] worked out at 0.25 µg/mL (≈ 0.284 µM); in assay [21] it was 2 µg/mL (≈ 2.27 µM); in assay [22], 0.25 µg/mL (≈ 0.284 µM); in assay [23] it was 16 µg/mL (≈ 18.2 µM); in [24] it was 8 µg/mL (≈ 9.08 µM); in [25], 6 µg/mL (≈ 6.81 µM). The MIC is over 128 µg/mL in assay [26]; 8 µg/mL (≈ 9.08 µM) in assay [27]; over 128 µg/mL in [28]; over 128 µg/mL in assay [29]; over 64 µg/mL in [30]. Moreover, the pKd in [19] is 6.01.
As to `CC(C)CCCCCCCCC(=O)N(C)[C@H](CO)C(=O)N[C@H](C)C(=O)NCC(=O)N(C)[C@@H]1C(=O)N[C@@H](C)C(=O)N[C@H](C(=O)O)Cc2ccc(O)c(c2)-c2cc1ccc2O` [ARYLOMYCIN A2], the minimum inhibitory concentration (MIC) in [2] was determined as 0.5 µg/mL (≈ 0.606 µM).
Regarding `CCCCCCCCCCCCCCCC(=O)N(C)[C@H](CO)C(=O)N[C@H](C)C(=O)NCC(=O)N(C)[C@@H]1C(=O)N[C@@H](C)C(=O)N[C@H](C(=O)O)Cc2cc(c(O)c([N+](=O)[O-])c2)-c2cc1ccc2O`, the MIC in assay [4] was 8 µg/mL (≈ 8.64 µM); in assay [7] it was 4 µg/mL (≈ 4.32 µM); in assay [11], 8 µg/mL (≈ 8.64 µM); in assay [12] it was over 64 µg/mL; in assay [13] it was 16 µg/mL (≈ 17.3 µM); in assay [17], over 64 µg/mL. For the same compound, the MIC in [20] is 0.25 µg/mL (≈ 0.27 µM); in [21], 2 µg/mL (≈ 2.16 µM); in assay [24], 8 µg/mL (≈ 8.64 µM); in [30] it was over 64 µg/mL.
For the compound `CCCCCCCCCCCCCCCC(=O)N(C)[C@H](CO)C(=O)N[C@H](C)C(=O)NCC(=O)N(C)[C@@H]1C(=O)N[C@@H](C)C(=O)N[C@H](C(=O)O)Cc2ccc(O)c(c2)-c2cc1ccc2O[C@@H]1O[C@@H](C)[C@H](O)[C@@H](O)[C@H]1O`, the minimal inhibitory concentration (MIC) in assay [4] is 8 µg/mL (≈ 7.79 µM); in assay [7], 4 µg/mL (≈ 3.89 µM); in assay [11] it was over 64 µg/mL; in assay [12], over 64 µg/mL; in [13], 8 µg/mL (≈ 7.79 µM); in assay [17], over 64 µg/mL. Besides, the MIC in assay [20] is 0.25 µg/mL (≈ 0.243 µM); in assay [21], 2 µg/mL (≈ 1.95 µM); in assay [24], 16 µg/mL (≈ 15.6 µM); in [30], over 64 µg/mL.
